In BindingDB's records for doi:10.7270/Q2697202 (Nmmlsc, 2008):

Target: Induced myeloid leukemia cell differentiation protein Mcl-1 (Homo sapiens, UniProt Q07820)
Experiment: Mcl-1/Bim interaction regulators – biochemical, bead-based flow cytometry, multiplexed, human, dose response (AID 1329)
Settings: not given

Chain of Induced myeloid leukemia cell differentiation protein Mcl-1 (Q07820 whole entry): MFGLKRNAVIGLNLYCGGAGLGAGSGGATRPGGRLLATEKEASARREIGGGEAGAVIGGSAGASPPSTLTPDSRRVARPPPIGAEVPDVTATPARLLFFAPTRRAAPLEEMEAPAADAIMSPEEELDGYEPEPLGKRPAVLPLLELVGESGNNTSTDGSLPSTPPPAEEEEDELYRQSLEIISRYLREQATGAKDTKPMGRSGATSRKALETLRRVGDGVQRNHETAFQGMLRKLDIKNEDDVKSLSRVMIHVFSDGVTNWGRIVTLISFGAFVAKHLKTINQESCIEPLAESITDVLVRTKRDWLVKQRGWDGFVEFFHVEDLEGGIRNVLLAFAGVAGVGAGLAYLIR

**Q.** How did the EC50 turn out when `CN1CCc2cccc3c2[C@@H]1Cc1ccc(O)c(O)c1-3` was run?
**A.** 38.6 µM

**Q.** For `CCC(/C=C1\Sc2ccc(OC)cc2N1CCO)=C\c1sc2ccc(OC)cc2[n+]1CCO`, which EC50 is on record?
**A.** 19.3 µM

**Q.** Which EC50 does the source give for `Cc1nc2ncccn2c1-c1csc(Nc2ccc(O)cc2)n1` here?
**A.** 0.39 µM

**Q.** `c1ccc(-c2nc(N3CCOCC3)[s+]n2-c2ccccc2)cc1` was tested. Which EC50 did it give?
**A.** 9.74 µM

**Q.** For `COc1cc(CN=Nc2nn3cnnc3c3ccccc23)ccc1O` [(4E)-2-methoxy-4-[[2-([1,2,4]triazolo[3,4-a]phthalazin-6-yl)hydrazinyl]methylidene]cyclohexa-2,5-dien-1-one], which EC50 is on record?
**A.** 5.05 µM

**Q.** How did the EC50 turn out when `COc1cccc2c(SCC(=O)NN=Cc3ccc(O)cc3O)cc(C)nc12` [N'-[(E)-(2-hydroxy-4-oxo-1-cyclohexa-2,5-dienylidene)methyl]-2-[(8-methoxy-2-methyl-4-quinolinyl)thio]acetohydrazide] was run?
**A.** 29 µM

**Q.** Which EC50 does the source give for `COc1cc(C=NNC(=O)CN(Cc2ccco2)S(=O)(=O)c2ccccc2)ccc1O` [N-(2-furanylmethyl)-N-[2-[[(E)-(3-methoxy-4-oxo-1-cyclohexa-2,5-dienylidene)methyl]hydrazo]-2-oxoethyl]benzenesulfonamide] here?
**A.** 11.4 µM

**Q.** For `Cc1ccc(-c2nc(N3CCOCC3)s[n+]2-c2ccccc2)cc1` [SMR000225370], which EC50 is on record?
**A.** 2.04 µM

**Q.** With `Nc1c(C(=O)NCC2CCCO2)sc2nc3c(c(-c4ccco4)c12)CC/C3=C\c1ccco1` (stereo unspecified) [SMR000259502] as the compound, how does the EC50 read?
**A.** 6 µM

**Q.** `Nc1c(C(=O)NC2CC2)sc2nc3c(c(-c4ccco4)c12)CC/C3=C/c1ccco1` [SMR000259554] was tested. Which EC50 did it give?
**A.** 5.86 µM

**Q.** Which EC50 does the source give for `Cc1nnc2ccc(-c3cccc(NC(=O)c4ccco4)c3)nn12` [SMR000324305] here?
**A.** 5.76 µM

**Q.** For `CCN1/C(=C/C(C)=C/c2sc3ccccc3[n+]2CC)Sc2ccccc21` [SMR000354813], which EC50 is on record?
**A.** 41.2 µM

Same assay, conditions: inactive by the depositor's call

**Q.** How did the EC50 turn out when `CCOCCCNc1nc(S)nc2cc(OC)c(OC)cc12` was run?
**A.** 2.54 µM

**Q.** `COCCNc1[nH]c(=S)nc2cc(OC)c(OC)cc12` was tested. Which EC50 did it give?
**A.** 4.54 µM

**Q.** `CN1CCN(C2=C(Cl)C(=O)C(c3cnc(N4CCCCC4)s3)=C(Cl)C2=O)CC1` was tested. Which EC50 did it give?
**A.** 0.7 µM

**Q.** With `CCOC(=O)c1ccc(Nc2nc(C(=O)OCC)nc3ccccc23)cc1` as the compound, how does the EC50 read?
**A.** 4.52 µM

**Q.** With `CCOCCCn1c(N)c(C(=O)Nc2sc3c(c2C(=O)OC)CCCC3)c2nc3ccccc3nc21` as the compound, how does the EC50 read?
**A.** 1.85 µM

**Q.** Which EC50 does the source give for `CCN1C(=O)/C(=C/C=C2\C=CN(CC)c3ccccc32)SC1=S` here?
**A.** 15.8 µM

**Q.** With `Cc1ccc(-c2ccc(/C=C/C(=O)c3ccccc3)o2)cc1` as the compound, how does the EC50 read?
**A.** 13.2 µM

**Q.** For `O=S1(=O)N=C(N(CCO)N=C/C=C/c2ccccc2)c2ccccc21`, which EC50 is on record?
**A.** 20.9 µM

**Q.** For `COc1ccc(-n2c(=O)c3ccccc3c3ccccc3c2=O)c(OC)c1`, which EC50 is on record?
**A.** 26.9 µM

**Q.** With `COc1cc2nc(=S)n(CCCN3CCOCC3)c(N)c2cc1OC` as the compound, how does the EC50 read?
**A.** 6.14 µM

**Q.** With `CN(C)c1ncc(C2=C(Cl)C(=O)C(N3CCCC3)=C(Cl)C2=O)s1` as the compound, how does the EC50 read?
**A.** 3.71 µM

**Q.** For `O=C(Nc1ccc2nc(-c3ccco3)c(-c3ccco3)nc2c1)N1CCN(c2ccccn2)CC1`, which EC50 is on record?
**A.** 10.9 µM

**Q.** Which EC50 does the source give for `O=C(c1ccccc1)c1ccc2nc(-c3ccco3)c(-c3ccco3)nc2c1` here?
**A.** 45.4 µM

**Q.** For `COCCNC(=S)Nc1cc(OC)c(OC)cc1C#N` [1-(2-cyano-4,5-dimethoxy-phenyl)-3-(2-methoxyethyl)thiourea], which EC50 is on record?
**A.** 7.11 µM

**Q.** For `Cc1ccc(C(=O)/C=C/c2ccc(-c3ccc(C)cc3)o2)cc1` [1-p-Tolyl-3-(5-p-tolyl-furan-2-yl)-propenone], which EC50 is on record?
**A.** 2.61 µM

**Q.** Which EC50 does the source give for `O=C(NCc1ccccc1)c1ccc2nc(-c3ccco3)c(-c3ccco3)nc2c1` [2,3-bis(furan-2-yl)-N-(phenylmethyl)quinoxaline-6-carboxamide] here?
**A.** 7.82 µM

**Q.** Which EC50 does the source give for `O=C(Nc1ccccc1)c1ccc2nc(-c3ccco3)c(-c3ccco3)nc2c1` [2,3-di-2-furyl-N-phenyl-6-quinoxalinecarboxamide] here?
**A.** 39.6 µM

**Q.** `O=C(CSc1ccc2nnc(-c3ccccn3)n2n1)Nc1nccs1` [2-[[3-(2-pyridinyl)-[1,2,4]triazolo[4,3-b]pyridazin-6-yl]thio]-N-(2-thiazolyl)acetamide] was tested. Which EC50 did it give?
**A.** 11.8 µM

**Q.** For `O=C(/C=C/c1ccccc1Cl)c1ccccc(=O)c1O` [3-[(E)-3-(2-chlorophenyl)prop-2-enoyl]-2-oxidanyl-cyclohepta-2,4,6-trien-1-one], which EC50 is on record?
**A.** 19.4 µM

**Q.** With `Cc1nc2ncccn2c1-c1csc(Nc2ccccc2)n1` [4-(2-methyl-3-imidazo[1,2-a]pyrimidinyl)-N-phenyl-2-thiazolamine] as the compound, how does the EC50 read?
**A.** 8.97 µM

**Q.** With `Cc1cc(C)nc(SCc2cc(=O)c(OC(=O)c3ccc(Cl)c([N+](=O)[O-])c3)co2)n1` [4-chloro-3-nitrobenzoic acid [6-[[(4,6-dimethyl-2-pyrimidinyl)thio]methyl]-4-oxo-3-pyranyl] ester] as the compound, how does the EC50 read?
**A.** 5.92 µM

**Q.** Which EC50 does the source give for `COc1cc2nc(=S)[nH]c(NCC3CCCO3)c2cc1OC` (stereo unspecified) [6,7-dimethoxy-4-(2-oxolanylmethylamino)-1H-quinazoline-2-thione] here?
**A.** 1.9 µM

**Q.** With `COc1ccc(C2=Nn3c(nnc3-c3ccco3)SC2)cc1OC` [6-(3,4-Dimethoxy-phenyl)-3-furan-2-yl-7H-[1,2,4]triazolo[3,4-b][1,3,4]thiadiazine] as the compound, how does the EC50 read?
**A.** 2.94 µM

**Q.** `CN(N=C/C=C/c1ccccc1)C1=NS(=O)(=O)c2ccccc21` [(1E,2E)-3-phenylacrylaldehyde (1,1-dioxido-1,2-benzisothiazol-3-yl)(methyl)hydrazone] was tested. Which EC50 did it give?
**A.** 5.53 µM

**Q.** `O=C1/C(=C\c2ccc(-c3ccccc3Cl)o2)SC(=S)N1CC1CCCO1` (stereo unspecified) [(5E)-5-[[5-(2-chlorophenyl)furan-2-yl]methylidene]-3-(oxolan-2-ylmethyl)-2-sulfanylidene-1,3-thiazolidin-4-one] was tested. Which EC50 did it give?
**A.** 2.14 µM

**Q.** Which EC50 does the source give for `O=C(/C=C\c1ccc(-c2ccccc2)o1)c1ccccc1` [(Z)-1-phenyl-3-(5-phenyl-2-furanyl)-2-propen-1-one] here?
**A.** 20.7 µM

**Q.** For `Cc1cc(-c2nnc3n2N=C(c2ccc(-c4ccccc4)cc2)CS3)[nH]n1` [MLS000082991], which EC50 is on record?
**A.** 9.39 µM

**Q.** Which EC50 does the source give for `Cc1cc2n(c1)CCn1c(C)ccc1-2` [MLS000104384] here?
**A.** 21 µM

**Q.** For `Clc1nc(NCc2cccnc2)nc(N2CCOCC2)n1` [MLS000121154], which EC50 is on record?
**A.** 16.9 µM

**Q.** With `CCCCNc1[nH]c(=S)nc2cc(OC)c(OC)cc12` [MLS000520261] as the compound, how does the EC50 read?
**A.** 1.04 µM

**Q.** With `COCCCn1c(N)c(C(=O)Nc2sc3c(c2C(=O)OC)CCCC3)c2nc3ccccc3nc21` [MLS000595323] as the compound, how does the EC50 read?
**A.** 3.12 µM

**Q.** Which EC50 does the source give for `COc1cc2nc(=S)[nH]c(NCCc3ccc(S(N)(=O)=O)cc3)c2cc1OC` [MLS000674601] here?
**A.** 0.36 µM

**Q.** For `COc1ccc(C)cc1-n1c(=O)c2ccccc2c2ccccc2c1=O` [MLS000682999], which EC50 is on record?
**A.** 16 µM

**Q.** Which EC50 does the source give for `Fc1ccc(C2=Nc3cccc4cccc(c34)N2)cc1` [MLS000687139] here?
**A.** 10.5 µM

**Q.** `Cc1ccnc(SCc2cc(=O)c(OC(=O)c3ccc(Cl)c([N+](=O)[O-])c3)co2)n1` [MLS000696790] was tested. Which EC50 did it give?
**A.** 39.5 µM

**Q.** For `COc1ccc(/C=C/C(=O)c2cc(Br)ccc(=O)c2O)cc1` [MLS000702099], which EC50 is on record?
**A.** 33.2 µM

**Q.** For `CCOC(=O)c1c(O)nc2ccc(Cl)c3c2c1-c1ccccc1C3=O` [MLS000704595], which EC50 is on record?
**A.** 9.29 µM

**Q.** With `c1ccc(Nc2cccc(Nc3ccccc3)n2)cc1` [N,N'-diphenyl-2,6-pyridinediamine] as the compound, how does the EC50 read?
**A.** 12.2 µM

**Q.** For `Cc1cccc(OCC(=O)NCC(=O)NN=Cc2cc(Br)ccc2OCc2ccccc2)c1` [N-[(5-bromanyl-2-phenylmethoxy-phenyl)methylideneamino]-2-[2-(3-methylphenoxy)ethanoylamino]ethanamide], which EC50 is on record?
**A.** 7.78 µM

**Q.** How did the EC50 turn out when `COCCCNc1nc(S)nc2cc(OC)c(OC)cc12` [SMR000026607] was run?
**A.** 1.74 µM

**Q.** For `Cc1cc2nn(-c3cccc4ccccc34)nc2cc1N` [SMR000076237], which EC50 is on record?
**A.** 1.75 µM

**Q.** With `C#CCn1cc(C=C2C(=O)c3ccccc3C2=O)c2ccccc21` [SMR000196125] as the compound, how does the EC50 read?
**A.** 16.3 µM

**Q.** `CN(N=Cc1cccnc1)C1=NS(=O)(=O)c2ccccc21` [SMR000207578] was tested. Which EC50 did it give?
**A.** 20.6 µM

**Q.** With `Cc1ccc(C=NNC(=O)CSc2nnc(-c3ccc(Cl)cc3)n2-c2ccccc2)o1` [SMR000218122] as the compound, how does the EC50 read?
**A.** 5.71 µM

**Q.** How did the EC50 turn out when `COc1ccc(OC)c(-n2c(=O)c3ccccc3c3ccccc3c2=O)c1` [SMR000236434] was run?
**A.** 16.7 µM

**Q.** For `O=C1c2ccccc2-c2onc3ccc(N4CCCC4)c1c23` [SMR000279741], which EC50 is on record?
**A.** 69.7 µM

**Q.** `Cc1ccnc(Nc2nc(-c3c(C)nc4sccn34)cs2)c1` [[4-(6-Methyl-imidazo[2,1-b]thiazol-5-yl)-thiazol-2-yl]-(4-methyl-pyridin-2-yl)-amine] was tested. Which EC50 did it give?
**A.** 16.7 µM

**Q.** For `CCOC(=O)c1nc(Nc2ccc(C(=O)OC)cc2)c2ccccc2n1` [ethyl 4-(4-methoxycarbonylanilino)quinazoline-2-carboxylate], which EC50 is on record?
**A.** 14.7 µM

**Q.** `CN(N=Cc1ccncc1)C1=NS(=O)(=O)c2ccccc21` [isonicotinaldehyde (1,1-dioxido-1,2-benzisothiazol-3-yl)(methyl)hydrazone] was tested. Which EC50 did it give?
**A.** 2.74 µM
